From PMC3475717, “A Spiroligomer α-Helix Mimic That Binds HDM2, Penetrates Human Cells and Stabilizes HDM2 in Cell Culture” (PLoS ONE, 2012)

Test system: HepG2 cells
Assay: cell penetration, fluorescence and confocal microscopy; active vs. passive transport
Format: cell-based, human
Protocol: Cell Culture and Treatment. HepG2 (expressing wild-type p53) and Huh7 (expressing mutant p53) cell lines were purchased from the American Type Culture Collection (ATCC) and cultured as monolayers in Dulbecco’s modified Eagle’s medium (DMEM) (Invitrogen) supplemented with 100 mM nonessential amino acid solution, 100 mM sodium pyruvate, 100 U/mL penicillin, 100 μg/mL streptomycin, and 10% heat inactivated fetal bovine serum (FBS) (all from Hyclone).
Cells were maintained at 37° C and 5% CO2 and were treated with media that contained 0.5%
FBS. Nutlin-3 (Sigma) was dissolved in 0.01% DMSO (Sigma). This concentration of DMSO did not affect the cell phenotype. Both nutlin-3 and spiroligomers were added into the medium for final concentrations of 2 µM, 5 µM, 10 µM and 20 µM for 24 hours. For the western blot experiments detailed below, the time length for incubation with bis-peptide was 17 hours.
Fluorescence and Confocal Microscopy. Fluorescence and confocal microscopy were applied to live and fixed cells. Cells were grown on glass chambers and fixed with ice-cold 95:5 ethanol/acetic acid for 10 minutes at -20 °C. Sections were washed with PBS and mounted in Vectashield aqueous mounting medium with DAPI (Vector laboratories). Fluorescent specimens were analyzed using an ECLIPSE Ti microscope (Nikon), lenses with hardened […]
(1 picture or pasted object on this page, not shown here) […]
filters (Nikon), and a Nikon DS-Fi1 camera, which was operated by NIS Elements computer software (Nikon). Confocal microscopy was performed with a Leica SP-1 microscope, with illumination at 488 nm and spectral detection. […]
Mathematical model described8 and MxPro software (Stratagene) were used to process PCR data. End-point PCR reactions were assayed with PCR Master Mix (Promega). Samples were amplified in 34 cycles; each cycle consisted of 30 sec of denaturation at 95 °C, 30 sec of annealing at 60 °C, and 30 sec of elongation at 72 °C. After 34 cycles, samples were subjected to final elongation for 5 minutes at 72 °C. […]
fluorescence in the images.

CC(C)CN1C(=O)[C@@H]2C[C@@]3(CN2C(=O)[C@@]12C[C@H]1C(=O)N(Cc4ccc(Cl)c(Cl)c4)[C@]4(C[C@@H]5C(=O)N[C@@H](CCc6ccccc6)C(=O)N5C4)C(=O)N1C2)NC(=O)[C@@H](CCCCNC(=S)Nc1ccc2c(c1)C(=O)OC21c2ccc(O)cc2Oc2cc(O)ccc21)NC3=O [Compound 1]
mechanism of cell penetration: passive diffusion
uptake of fluorescence with active transport inhibited (HepG2, 37°C, 60 min pre-treatment with 10 mM sodium azide and 50 mM deoxy-D-glucose, 5 µM, 3.75 hours): indistinguishable from control cells treated with 1 at 37 °C
